Several values for one entry are separate records, joined by “and”; a condition that tells them apart may be missing. Identical values can stand only once. One block for each compound: values may come before it. Activity calls are given as the source filed them. The calls are words filed in the database; no cut-off is given here.
Legend:
[1] = target: Inosine-5'-monophosphate dehydrogenase 2 (Homo sapiens, UniProt P12268); assay: Inhibition of human IMPDH2
[2] = target: Inosine-5'-monophosphate dehydrogenase 1 (Homo sapiens, UniProt P20839); assay: Inhibition of human IMPDH1
Sequence of Inosine-5'-monophosphate dehydrogenase 1 (P20839 whole entry): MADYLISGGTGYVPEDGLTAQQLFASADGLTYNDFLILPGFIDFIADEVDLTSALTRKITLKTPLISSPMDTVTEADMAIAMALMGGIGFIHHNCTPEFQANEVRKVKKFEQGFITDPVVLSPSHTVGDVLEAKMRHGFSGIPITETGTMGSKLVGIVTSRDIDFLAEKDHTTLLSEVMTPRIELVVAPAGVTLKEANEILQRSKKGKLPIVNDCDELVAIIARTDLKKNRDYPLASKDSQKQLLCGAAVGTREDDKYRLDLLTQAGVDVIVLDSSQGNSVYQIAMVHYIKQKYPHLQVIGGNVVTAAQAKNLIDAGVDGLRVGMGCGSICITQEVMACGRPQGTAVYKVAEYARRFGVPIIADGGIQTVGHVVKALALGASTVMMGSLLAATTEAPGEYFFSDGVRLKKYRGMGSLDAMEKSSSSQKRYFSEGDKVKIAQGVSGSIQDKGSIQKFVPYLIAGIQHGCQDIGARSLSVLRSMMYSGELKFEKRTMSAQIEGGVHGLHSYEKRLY

K562 [3] = assay: Cytotoxicity against human K562 cells; assay type: functional, cell-based
K562 [4] = assay: Antiproliferative activity against human K562 cells at 1 mM in presence of guanosine; assay type: functional, cell-based
[5] = target: Histone deacetylase (Homo sapiens) (UniProt Q13547+O15379+Q9UBN7+Q92769+Q9UQL6+Q8WUI4+Q9BY41+Q96DB2+P56524+Q9UKV0+Q969S8); assay: Inhibition of HDAC in human K562 cells using Boc-Lys[Ac]-AMC as substrate at 10 uM incubated for 10 mins prior to substrate addition measured after 80 mins by fluorescence assay; assay type: cell-based
K562 [6] = assay: Antiproliferative activity against human K562 cells at 5 uM in presence of guanosine; assay type: functional, cell-based
K562 [7] = assay: Induction of human K562 cell differentiation at 5 uM after 72 hrs by trypan blue exclusion assay in presence of guanosine; assay type: functional, cell-based
K562 [8] = assay: Antiproliferative activity against human K562 cells at 5 uM; assay type: functional, cell-based
Homo sapiens = organism: Homo sapiens; assay: Selectivity index, ratio of IC50 for human IMPDH1 to IC50 for human IMPDH2
K562 [9] = assay: Induction of human K562 cell differentiation at 2.5 uM after 72 hrs by trypan blue exclusion assay in presence of guanosine; assay type: functional, cell-based
K562 [10] = assay: Antiproliferative activity against human K562 cells at 2.5 uM in presence of guanosine; assay type: functional, cell-based
K562 [11] = assay: Antiproliferative activity against human K562 cells at 2.5 uM; assay type: functional, cell-based
K562 [12] = assay: Induction of human K562 cell differentiation at 30 uM after 72 hrs by trypan blue exclusion assay; assay type: functional, cell-based
K562 [13] = assay: Induction of human K562 cell differentiation at 1 to 30 uM after 72 hrs by trypan blue exclusion assay in presence of guanosine; assay type: functional, cell-based
K562 [14] = assay: Antiproliferative activity against human K562 cells at 1 uM; assay type: functional, cell-based
K562 [15] = assay: Antiproliferative activity against human K562 cells at 1 uM in presence of guanosine; assay type: functional, cell-based
K562 [16] = assay: Induction of human K562 cell differentiation at 1 uM after 72 hrs by trypan blue exclusion assay in presence of guanosine; assay type: functional, cell-based

IC50 [1]: 387 nM | IC50 [2]: 680 nM
Structure (SMILES): COc1c(C)c2c(c(O)c1C/C=C(\C)CCC(=O)[C@@H]1CO1)C(=O)OC2 [listing 1 of 3 here]
IC50 (K562 [3]): 2300 nM

Structure (SMILES): COc1c(C)c2c(c(O)c1C/C=C(\C)CCC(=O)Nc1ccccn1)C(=O)OC2
IC50 (K562 [3]): 26000 nM

Structure (SMILES): COc1c(C)c2c(c(O)c1C/C=C(\C)CCC(=O)Nc1nncs1)C(=O)OC2
IC50 (K562 [3]): 27000 nM

Structure (SMILES): CCCC(=O)[O-].[Na+]
Activity (K562 [4]): Active

Structure (SMILES): COc1c(C)c2c(c(O)c1C/C=C(\C)CCCS)C(=O)OC2
IC50 (K562 [3]): 74000 nM

inhibition [5]: 15% and 19% | Ratio IC50 (Homo sapiens): 1.8 and 1.7
Structure (SMILES): COc1c(C)c2c(c(O)c1C/C=C(\C)CCC(=O)[C@@H]1CO1)C(=O)OC2 [listing 2 of 3 here]
Activity (K562 [6]): inactive | Activity (K562 [7]): inactive | Activity (K562 [8]): Active

IC50 [1]: 330 nM | IC50 [2]: 558 nM
Structure (SMILES): COc1c(C)c2c(c(O)c1C/C=C(\C)CCC(=O)[C@@H]1CO1)C(=O)OC2 [listing 3 of 3 here]
IC50 (K562 [3]): 2900 nM

Structure (SMILES): COc1c(C)c2c(c(O)c1C/C=C(\C)CCC(=O)Nn1cnnc1)C(=O)OC2
IC50 (K562 [3]): 31000 nM

inhibition [5]: 76%
Structure (SMILES): COc1c(C)c2c(c(O)c1C/C=C(\C)CCC(=O)NO)C(=O)OC2
Activity (K562 [9]): inactive | Activity (K562 [10]): inactive | Activity (K562 [11]): Active

Structure (SMILES): COc1c(C)c2c(c(O)c1C/C=C(\C)CCC(=O)Nc1nccs1)C(=O)OC2
IC50 (K562 [3]): 22000 nM

Structure (SMILES): COc1c(C)c2c(c(O)c1C/C=C(\C)CCCSC(C)=O)C(=O)OC2
IC50 (K562 [3]): 26000 nM

IC50 [1]: 98 nM | Ratio IC50 (Homo sapiens): 1.1 | IC50 [2]: 105 nM
Structure (SMILES): COc1c(C)c2c(c(O)c1C/C=C(\C)CCC(=O)Nc1ncn[nH]1)C(=O)OC2
Activity (K562 [12]): Active | Activity (K562 [13]): inactive | Activity (K562 [14]): Active | Activity (K562 [15]): inactive | IC50 (K562 [3]): 480 nM

inhibition [5]: 3%
Structure (SMILES): COc1c(C)c2c(c(O)c1C/C=C(\C)CCC(=O)O)C(=O)OC2
Activity (K562 [16]): inactive | Activity (K562 [14]): Active | Activity (K562 [15]): inactive

Structure (SMILES): COc1c(C)c2c(c(O)c1C/C=C(\C)CCC(=O)Nc1nnn[nH]1)C(=O)OC2
IC50 (K562 [3]): 34000 nM

Source: ChEMBL document CHEMBL2417359, “Discovery of N-(2,3,5-triazoyl)mycophenolic amide and mycophenolic epoxyketone as novel inhibitors of human IMPDH” (Bioorg Med Chem Lett, 2013)
